What is called EC50 is the midpoint of the concentration-response curve. A high value points to weaker potency. As usually defined, the IC50 is the concentration that inhibits the measured activity by half.

This is an account of results in US6518272B2, “Cycloalkyl-substituted aryl-piperazines, piperidines and tetrahydropyridines as serotonergic agents” (Wyeth, priority 1998, dated 2003).

For one test, the system named is depression. As to conditions: in vivo; cited from earlier work.
For test [1], the target named is T1, human 5-HT1A receptor (Homo sapiens, UniProt P08908).
T1 construct: expressed in transfected cells; host or cells: CHO cells (stably transfected)
T1 sequence (P08908 1-422): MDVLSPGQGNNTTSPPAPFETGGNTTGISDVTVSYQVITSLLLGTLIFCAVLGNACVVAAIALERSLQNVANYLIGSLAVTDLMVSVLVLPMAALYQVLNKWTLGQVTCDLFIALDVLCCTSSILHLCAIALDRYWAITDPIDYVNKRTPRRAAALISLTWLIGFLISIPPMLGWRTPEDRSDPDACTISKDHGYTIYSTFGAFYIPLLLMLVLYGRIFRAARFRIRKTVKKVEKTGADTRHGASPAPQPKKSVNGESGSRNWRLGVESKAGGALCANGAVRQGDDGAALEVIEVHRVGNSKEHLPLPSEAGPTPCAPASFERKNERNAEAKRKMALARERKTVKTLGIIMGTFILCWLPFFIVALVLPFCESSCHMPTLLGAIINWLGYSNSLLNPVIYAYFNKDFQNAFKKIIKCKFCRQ
Nature of the test: Agonist activity: inhibition of forskolin-stimulated cAMP accumulation in transfected CHO cells. Format: cell-based. The conditions noted are these: CHO cells with human 5-HT1A receptor. The text has this: (§1) Methods, 40, 47-55 (1998); variation of a procedure described by J. Zgombick et al., Naunyn-Schmiedeberg's Arch. Pharmacol., 354, 226-236 (1996)].
Background: Cyclic AMP is a second messenger, typically raised through Gs and lowered through Gi signalling.

Test [2] has as its target T1, human 5-HT1A receptor. In words: Displacement of [3H] 8-OHDPAT from the 5-HT1A receptor in transfected CHO cells. Format: binding. The text has this:
Affinity for the serotonin 5-HT1A receptor was established by assaying the test compound's ability to displace [^3H] 8-OHDPAT from its binding site on the receptor complex in CHO cells stably transfected with the human 5-HT1A receptor following the procedure described by J. Dunlop, Y. Zhang, D. Smith and L. Schechter (Eur. J. Pharmacol., submitted; variation of a procedure described by J. Zgombick et al., Naunyn-Schmiedeberg's Arch. Pharmacol., 354, 226-236 (1996)).

Test [3] addresses T1, human 5-HT1A receptor. In words: Antagonist activity: antagonism of 8-OHDPAT inhibition of forskolin-stimulated cAMP accumulation in transfected CHO cells. The conditions noted are these: CHO cells with human 5-HT1A receptor. Format: cell-based.
From the text: as §1

For test [4], the system named is motion sickness and xylazine- and cis-platinin-induced vomiting. The conditions noted are these: cited from earlier work.
A further test concerns LTP. The conditions noted are these: cited from earlier work.
The test system of test [5] is impairment of spatial learning caused by intrahippocampal scopolamine. As to conditions: cited from earlier work.
Test [6] relates to cognitive deficits induced by fornix lesions. As to conditions: marmosets; cited from earlier work.
In the next test the test system is antidepressant response. The conditions noted are these: clinical trials; co-administration with the SSRI's paroxetine and fluoxetine; cited from earlier work.
For test [7], the system named is human prostate tumor cell lines PC3, DU-145 and LNCaP. As to conditions: PC3, DU-145 and LNCaP in vitro; cited from earlier work.
For a further test, the system named is PC3 cell line. As to conditions: athymic nude mice; cited from earlier work.
Where [8] appears, read: displacement of [3H] 8-OHDPAT, CHO cells stably transfected with the human 5-HT1A receptor, read-out: 5-HT1A Affinity (IC50).

In the case of `O=C1CC2(CCCC2)CC(=O)N1CCCCN1CCN(c2ncccn2)CC1` [Buspirone, buspirone], the antidepressant activity result in the test with depression is recorded as “weak antidepressant activity”.

On to `COc1ccccc1N1CCN(C[C@@H](CC2CCCCC2)NC(=O)C2CCCCC2)CC1` [Example 1, Cyclohexanecarboxylic Acid {(1R)-1-Cyclohexylmethyl-2-[4-(2-methoxyphenyl)-piperazin-1-yl]-ethyl}-amide], for which a half-maximal effect at human 5-HT1A receptor [1] (EC50) was put at 0.5 nM. In addition, on human 5-HT1A receptor [2] (setting [8]), the IC50 came to 0.57 nM.

With `COc1ccccc1N1CCN(C[C@@H](CC2CCCCC2)N(C)C(=O)C2CCCCC2)CC1` [Example 3, Cyclohexanecarboxylic Acid {(1R)-1-Cyclohexylmethyl-2-[4-(2-methoxyphenyl)-piperazin-1-yl]-ethyl}-methyl-amide], the IC50 against human 5-HT1A receptor [3] came out at 4 nM; at human 5-HT1A receptor [2] (setting [8]) it was 1.46 nM.

As to `COc1ccccc1N1CCN(C[C@@H](CC2CCCCC2)N(C)C(=O)C2(C)CCCCC2)CC1` [Example 4, 1-Methyl-cyclohexanecarboxylic Acid {(1R)-1-Cyclohexylmethyl-2-[4-(2-methoxyphenyl)-piperazin-1-yl]-ethyl}-methyl-amide], the IC50 on human 5-HT1A receptor [3] came out at 10.2 nM; on human 5-HT1A receptor [2] (setting [8]), 2.82 nM.

For the molecule `CN(C(=O)C1CCCCC1)[C@H](CC1CCCCC1)CN1CCN(c2cccc3c2OCCO3)CC1` [Example 5], the values for the IC50 on human 5-HT1A receptor [3] and on human 5-HT1A receptor [2] (setting [8]) were 4.6 nM and 2.37 nM, respectively.

As for `CN(C(=O)C1(C)CCCCC1)[C@H](CC1CCCCC1)CN1CCN(c2cccc3c2OCCO3)CC1` [Example 6, 1-Methyl-cyclohexanecarboxylic Acid {(1R)-1-Cyclohexylmethyl-2-[4-(2,3-dihydro-benzo[1,4]dioxin-5-yl)-piperazin-1-yl]-ethyl}-methyl-amide], the IC50 on human 5-HT1A receptor [3] came out at 7.3 nM; at human 5-HT1A receptor [2] (setting [8]) it was 6.92 nM.

In the case of `CN(C(=O)C1CCCCC1)[C@H](CC1CCCCC1)CN1CCN(c2cccc3[nH]ccc23)CC1` [Example 7, Cyclohexanecarboxylic Acid {(1R)-1-Cyclohexylmethyl-2-[4-(1H-indol-4-yl)-piperazin-1-yl]-ethyl}-methyl-amide], the IC50 was 10.5 nM at human 5-HT1A receptor [3] and 8.84 nM on human 5-HT1A receptor [2] (setting [8]).

In the case of `COc1ccccc1N1CCN(C[C@@H](CC2CCCCC2)NC=O)CC1` [Example 9, N-{(1R)-1-Cyclohexylmethyl-2-[4-(2-methoxyphenyl)-piperazin-1-yl]-ethyl}-formamide], the IC50 was determined as 17.3 nM at human 5-HT1A receptor [3] and 1.49 nM on human 5-HT1A receptor [2] (setting [8]).

`O=C(N[C@H](CC1CCCCC1)CN1CCN(c2ncccn2)CC1)C1CCCCC1` [Example 10, Cyclohexanecarboxylic Acid {(1R)-1-Cyclohexylmethyl-2-[4-(pyrimidin-2-yl)-piperazin-1-yl]-ethyl}-amide] showed an EC50 at human 5-HT1A receptor [1] of 1.3 nM. Further, on human 5-HT1A receptor [2] (setting [8]), the IC50 was 0.71 nM.

As to `O=C(N[C@H](CC1CCCCC1)CN1CCN(c2ncccn2)CC1)C1CCC1` [Example 11, Cyclobutane Carboxylic Acid {(1R)-1-Cyclohexylmethyl-2-[4-(pyrimidin-2-yl)-piperazin-1-yl]-ethyl}-amide], the EC50 on human 5-HT1A receptor [1] is 21.7 nM. In addition, the IC50 on human 5-HT1A receptor [2] (setting [8]) was found to be 2.4 nM.

Consider `COc1cccc(N2CCN(C[C@H](CC3CCCCC3)NC(=O)C3CCCCC3)CC2)n1` [Example 12, Cyclohexane Carboxylic Acid {(1S)-1-Cyclohexylmethyl-2-[4-(6methoxypyridin-2-yl)-piperazin-1-yl]-ethyl}-amide], for which, on human 5-HT1A receptor [1], the EC50 came out at 14.8 nM. Also, the IC50 on human 5-HT1A receptor [2] (setting [8]) was 4.14 nM.

As for `O=C(N[C@H](CC1CCCCC1)CN1CCN(c2nc3ccccc3s2)CC1)C1CCCCC1` [Example 13, Cyclohexanecarboxylic Acid {(1R)-1-Cyclohexylmethyl-2-[4-(benzothiazol-2-yl)-piperazin-1-yl]-ethyl}-amide], the EC50 on human 5-HT1A receptor [1] worked out at 4.8 nM. For the same molecule, at human 5-HT1A receptor [2] (setting [8]), the IC50 amounted to 2.96 nM.

`COc1ccccc1C1CCN(C[C@@H](CC2CCCCC2)NC(=O)C2CCCCC2)CC1` [Example 15, Cyclohexanecarboxylic Acid {(1R)-1-Cyclohexylmethyl-2-[4-(2-methoxyphenyl)-piperidin-1-yl]-ethyl}-amide] registered an EC50 on human 5-HT1A receptor [1] of 3.9 nM. In addition, the IC50 on human 5-HT1A receptor [2] (setting [8]) came to 1.08 nM.

As to `COc1ccccc1C1CCN(C[C@@H](CC2CCCCC2)NC(=O)C2(C)CCCCC2)CC1` [Example 16, 1-Methyl-cyclohexanecarboxylic acid {(1R)-1-cyclohexylmethyl-2-[4-(2-methoxyphenyl)-piperidin-1-yl]-ethyl}-amide], the figures for the IC50 against human 5-HT1A receptor [3] and at human 5-HT1A receptor [2] (setting [8]) were 46 nM and 5.97 nM, respectively.

As for `COc1ccccc1C1CCN(C[C@@H](CC2CCCCC2)N(C)C(=O)C2CCCCC2)CC1` [Example 17, Cyclohexanecarboxylic Acid {(1R)-1-Cyclohexylmethyl-2-[4-(2-methoxyphenyl)-piperidin-1-yl]-ethyl}-methyl-amide], the concentration for half-maximal inhibition (IC50) on human 5-HT1A receptor [3] came to 91.5 nM; at human 5-HT1A receptor [2] (setting [8]), 1.69 nM.

Take `COc1ccccc1C1CCN(C[C@@H](CC2CCCCC2)N(C)C(=O)C2(C)CCCCC2)CC1` [Example 18, 1-Methyl-cyclohexanecarboxylic Acid {(1R)-1-Cyclohexylmethyl-2-[4-(2-methoxypheniyl)-piperidin-1-yl]-ethyl}-methyl-amide]: the IC50 against human 5-HT1A receptor [3] is 97.5 nM; at human 5-HT1A receptor [2] (setting [8]), 5.33 nM.

For the molecule `COc1ccccc1C1CCN(C[C@@H](CC2CCCCC2)NC(=O)C(C)(C)C)CC1` [Example 19, N-{(1R)-1-Cyclohexylmethyl-2-[4-(2-methoxyphenyl)-piperidin-1-yl]-ethyl}-2,2-dimethyl-propionamide], the IC50 against human 5-HT1A receptor [3] turned out to be 40 nM; at human 5-HT1A receptor [2] (setting [8]), 2.19 nM.

Turning to `COc1ccccc1C1=CCN(C[C@@H](CC2CCCCC2)NC(=O)C2(C)CCCCC2)CC1` [Example 21, 1-Methyl-cyclohexanecarboxylic Acid {(1R)-1-Cyclohexylmethyl-2-[4-(2-methoxyphenyl)-3,6-dihydro-2H-pyridin-1-yl]-ethyl}-amide], the results for the IC50 at human 5-HT1A receptor [3] and on human 5-HT1A receptor [2] were 45.5 nM and 2.75 nM, respectively.

`O=C(NCCN1CCN(c2cccc3c2OC[C@H](CO)O3)CC1)c1ccc(F)cc1` [Flesinoxan]: the “antiemetic activity in animal models” value in [4] was “particularly active”.

`COc1ccccc1N1CCN(CCCCN2C(=O)c3ccccc3C2=O)CC1` [NAN-190]: the “effect on LTP” value in the test with LTP is on record as “augment LTP”.

For `COc1ccccc1N1CCN(CC(C(=O)NC(C)(C)C)c2ccccc2)CC1` (stereo not drawn) [WAY-100135], in test [5], the “effect on impairment of spatial learning” value is reported as “prevented the impairment of spatial learning”.

As for `COc1ccccc1N1CCN(CCN(C(=O)C2CCCCC2)c2ccccn2)CC1` [WAY-100635], the “effect on cognitive deficits induced by fornix lesions” value in test [6] is on record as “reversed the cognitive deficits”.

As for `CC(C)NCC(O)COc1cccc2[nH]ccc12` (stereo not drawn) [pindolol], the “median time needed to achieve a sustained antidepressant response” value with antidepressant response was “significantly reduced the median time”.

On to pindobind, for which the “antineoplastic activity in vitro” value in [7] was “antineoplastic activity”. The “growth of PC3 cell line in vivo” value with PC3 cell line was “inhibited the growth”.
